How the values were obtained:
Type in all cases: in vivo
'Orri' mandarin trees = test: Fruit drop, 'Orri' mandarin, Mpumalanga (Example 6); conditions: Excelero SL; for % Change in # Fruit per Tree: vs untreated control
Description: Excelero™ SL was applied to mature ‘Orri’ mandarin trees in a commercial orchard near Mpumalanga, South Africa. The experiment consisted of a completely randomized design. S-ABA was applied at 20, 40 and 80 ppm in the form of Excelero™ SL and compared to an untreated control. All treatments were applied with Villa 51® at a rate of 6 milliliters per 100 liters of water. Treatments were applied 14, 21 and 28 days after 100% petal drop (“DAP”). See Results in Table 6, below.

[1] = test system: 'Midnight Valencia' sweet orange trees; test: Fruit drop, 'Midnight Valencia' sweet orange, Mpumalanga (Example 7); conditions: for # Fruit per Tree / % Change in # Fruit per Tree: Excelero SL; for % Change in # Fruit per Tree: vs untreated control
Description: Excelero™ SL was applied to mature ‘Midnight Valencia’ sweet orange trees in a commercial orchard near Mpumalanga, South Africa. The experiment consisted of a completely randomized design. S-ABA was applied at 20, 40 and 80 ppm in the form of Excelero™ SL and compared to an untreated control. All treatments were applied with Villa 51® at a rate of 6 milliliters per 100 liters of water. Treatments were applied 14, 21 and 28 days after 100% petal drop (“DAP”). See Results in Table 7, below.

[2] = test system: '2PH seedless' lemon trees; test: Fruit drop, '2PH seedless' lemon, Mpumalanga (Example 8); conditions: for # Fruit per Tree / % Change in # Fruit per Tree: Excelero SL; for % Change in # Fruit per Tree: vs untreated control
Description: Excelero™ SL was applied to mature ‘2PH seedless’ lemon trees in a commercial orchard near Mpumalanga, South Africa. The experiment consisted of a completely randomized design. S-ABA was applied at 20, 40 and 80 ppm in the form of Excelero™ SL and compared to an untreated control. All treatments were applied with Villa 51® at a rate of 6 milliliters per 100 liters of water. Treatments were applied 14, 21 and 28 days after 100% petal drop (“DAP”). See Results in Table 8, below.

[3] = 20, 40 and 80 ppm at each of 14, 21 and 28 days after 100% petal drop

(S)-abscisic acid [S-ABA]
% Change in # Fruit per Tree ('Orri' mandarin trees; 40 ppm @ 21 DAP): 24%
# Fruit per Tree ('Orri' mandarin trees; 40 ppm @ 28 DAP): 250
% Change in # Fruit per Tree ('Orri' mandarin trees; 40 ppm @ 28 DAP): 32%
# Fruit per Tree ('Orri' mandarin trees; 80 ppm @ 14 DAP): 255
% Change in # Fruit per Tree ('Orri' mandarin trees; 80 ppm @ 14 DAP): 35%
# Fruit per Tree ('Orri' mandarin trees; 80 ppm @ 21 DAP): 213
% Change in # Fruit per Tree ('Orri' mandarin trees; 80 ppm @ 21 DAP): 13%
# Fruit per Tree ('Orri' mandarin trees; 80 ppm @ 28 DAP): 207
% Change in # Fruit per Tree ('Orri' mandarin trees; 80 ppm @ 28 DAP): 10%
effect on fruit drop as compared to untreated control [1, 3]: reduced fruit drop
# Fruit per Tree ([1]; 20 ppm @ 14 DAP): 239
% Change in # Fruit per Tree ([1]; 20 ppm @ 14 DAP): 19%
# Fruit per Tree ([1]; 20 ppm @ 21 DAP): 263
% Change in # Fruit per Tree ([1]; 20 ppm @ 21 DAP): 31%
# Fruit per Tree ([1]; 20 ppm @ 28 DAP): 245
% Change in # Fruit per Tree ([1]; 20 ppm @ 28 DAP): 22%
# Fruit per Tree ([1]; 40 ppm @ 14 DAP): 221
% Change in # Fruit per Tree ([1]; 40 ppm @ 14 DAP): 10%
# Fruit per Tree ([1]; 40 ppm @ 21 DAP): 246
% Change in # Fruit per Tree ([1]; 40 ppm @ 21 DAP): 22%
# Fruit per Tree ([1]; 40 ppm @ 28 DAP): 230
% Change in # Fruit per Tree ([1]; 40 ppm @ 28 DAP): 14%
# Fruit per Tree ([1]; 80 ppm @ 14 DAP): 255
% Change in # Fruit per Tree ([1]; 80 ppm @ 14 DAP): 27%
# Fruit per Tree ([1]; 80 ppm @ 21 DAP): 256
% Change in # Fruit per Tree ([1]; 80 ppm @ 21 DAP): 27%
# Fruit per Tree ([1]; 80 ppm @ 28 DAP): 285
% Change in # Fruit per Tree ([1]; 80 ppm @ 28 DAP): 42%
effect on fruit drop as compared to untreated control [2, 3]: reduced fruit drop
# Fruit per Tree ([2]; 20 ppm @ 14 DAP): 107
% Change in # Fruit per Tree ([2]; 20 ppm @ 14 DAP): 23%
# Fruit per Tree ([2]; 20 ppm @ 21 DAP): 105
% Change in # Fruit per Tree ([2]; 20 ppm @ 21 DAP): 21%
# Fruit per Tree ([2]; 20 ppm @ 28 DAP): 112
% Change in # Fruit per Tree ([2]; 20 ppm @ 28 DAP): 29%
# Fruit per Tree ([2]; 40 ppm @ 14 DAP): 114
% Change in # Fruit per Tree ([2]; 40 ppm @ 14 DAP): 31%
# Fruit per Tree ([2]; 40 ppm @ 21 DAP): 121
% Change in # Fruit per Tree ([2]; 40 ppm @ 21 DAP): 39%
# Fruit per Tree ([2]; 40 ppm @ 28 DAP): 119
% Change in # Fruit per Tree ([2]; 40 ppm @ 28 DAP): 37%
# Fruit per Tree ([2]; 80 ppm @ 14 DAP): 109
% Change in # Fruit per Tree ([2]; 80 ppm @ 14 DAP): 25%
# Fruit per Tree ([2]; 80 ppm @ 21 DAP): 117
% Change in # Fruit per Tree ([2]; 80 ppm @ 21 DAP): 34%
# Fruit per Tree ([2]; 80 ppm @ 28 DAP): 125
% Change in # Fruit per Tree ([2]; 80 ppm @ 28 DAP): 44%
